Results reported in patent US7754748B2, “Method for treating obesity” (Duke University, priority 2002, dated 2010).

Assays:
[1] = 16-week randomized, double blind acute phase, zonisamide vs placebo in obese subjects; type: in vivo, human
From the text: Sixty-eight subjects were screened for participation and 60 subjects were randomized.
Inclusion criteria were: male or female, aged 21-50 years, with body mass index (BMI) of ≧30 kg/m^2.
(§1) The study had two phases. The first was the acute phase—a 16-week, randomized, double blind, parallel-group comparison of zonisamide (ZON) and placebo (PBO). This was followed by an optional 16-week extension phase. At the end of the acute phase, subjects wishing to continue further received the same treatment for an additional 16 weeks in a single-blinded fashion.
The subjects were randomized in a 1:1 ratio to receive zonisamide or placebo capsules. Study medication was dispensed under blinded conditions through computer-based randomization. The randomization was generated using a random number table with a block size of ten. There was no stratification by gender or other demographics. The study investigators were blind to the “blocking” method used by the pharmacy. The treatment assignment codes were not available to the investigators until all subjects completed the acute phase, the data were entered, and the database for this phase was locked, meaning that no further changes could be made to the data.
The study medication was dispensed in the form of capsules. Each capsule contained either 100 milligrams zonisamide or placebo. The capsules were made to look identical. The dose escalation was as follows: one capsule (zonisamide 100 mg or placebo) every evening for the first 2 weeks; two capsules (zonisamide 200 mg or placebo) every evening during Weeks 3 and 4; three capsules (zonisamide 300 mg or placebo) every evening during Weeks 5 and 6; and, four capsules (zonisamide 400 mg or placebo) every evening from Week 7 onward. At Week 12, the dose could be increased further to six capsules (zonisamide 600 mg or placebo) every evening for subjects who had not lost at least 5% of their initial body weight. If a subject preferred not to take all six capsules at one time, taking a half of the daily dose in the morning was an option. Based on tolerability, dose escalation could be withheld, or the dose might also be decreased. Medication compliance was overseen by recording the number of tablets returned and comparing this number to the number of capsules dispensed at each visit.
Subjects in both treatment groups were instructed to follow an individual diet that was 500 Kcal/day less than what they needed to maintain their weight. The prescribed diet, based on eating a variety of foods from the Food Guide Pyramid, emphasized decreasing portions, eating more fruits and vegetables, and drinking 8 cups of water each day. Increased physical activity was also encouraged for subjects in both groups. Subjects were asked to record their dietary intake including portion sizes in food diaries, which were provided to them. A registered dietician reviewed food diaries and provided counseling to all subjects. Subjects were encouraged to make healthy changes in their diets and physical activity that could be maintained after the completion of the study.
(§2) During each visit, the following assessments were performed: blood pressure, heart rate, weight, dietary compliance, medication accountability and tolerability, and adverse effects. Body weight was measured on a calibrated electronic scale to the nearest 0.1 kilogram. A registered dietitian reviewed food diaries and assessed dietary compliance. Adverse effects were gathered via spontaneous reporting by subjects as well as open-ended inquiries by the clinicians.
In addition to the above, the subjects completed the Impact of Weight on Quality of Life (IWQOL) (Kolotin et al, Obesity Res. 3:49-56 (1995)) at baseline, Week 8, and Week 16. The IWQOL is a self-report measure with 74 items that assess the perceived effect of weight on quality of life in the following domains (subscales)—health, social/interpersonal life, work, mobility, self-esteem, sexual life, activities of daily living, and eating (comfort with food). […]

[2] = optional 16-week single-blinded extension phase (to Week 32), zonisamide vs placebo in obese subjects; type: in vivo, human; conditions: for mean weight loss at Week 32: placebo 1.82% (0.73%)
Protocol: as §1, §2
In addition to the above, the subjects completed the Impact of Weight on Quality of Life (IWQOL) (Kolotin et al, Obesity Res. 3:49-56 (1995)) at baseline, Week 8, and Week 16. The IWQOL is a self-report measure with 74 items that assess the perceived effect of weight on quality of life in the following domains (subscales)—health, social/interpersonal life, work, mobility, self-esteem, sexual life, activities of daily living, and eating (comfort with food). Improvement with treatment is reflected by decreasing scores on all the subscales with the exception of the eating (comfort with food) subscale, which is expected to show less comfort around food with effective treatment. Body composition (fat and lean masses) and bone mineral density (BMD) were determined, at baseline and Week 32, by dual x-ray absorptiometry (DXA; Hologic 2000, Waltham, Mass.). All DXA measurements were gathered using the same equipment and techniques. Subjects were instructed to fast for 8 hours and not to drink water or other beverages for at least 4 hours prior to DXA measurement.
Weight change during the study was assessed in terms of actual weight change over the six study intervals using multivariable regression methodology, and as a dichotomous outcome of ‘response,’ i.e., 5% weight loss at Week 16, and 5% and 10% weight loss at Week 32. The proxy variables denoting response status were tested across treatment conditions again using Fisher's exact test. Three multivariable regression analyses were conducted. In the first, body weight at each time point was modeled using a random effects growth curve model. Heuristically, the model fits a regression line for each subject using available data points, thus maximizing use of actual data. For the second set of analyses, body weights were regressed as above with missing observations carried forward from the last recorded weight based on an intent-to-treat approach (LOCF). The final model was restricted to the subset of respondents with no missing data (completers).
Secondary analyses were conducted over three general areas of interest. In each case, analyses were based on 2×2 repeated measures ANOVAs that included time, drug condition, and their interaction (time-by-drug). The primary interest in each instance was to determine if subjects in the zonisamide condition were differentially affected relative to controls as operationally determined by testing the significance of the estimated interaction term. Tests in first area of interest focused on clinical indicators including levels of creatinine, glucose, triglycerides, high and low density lipoproteins (all assessed at baseline and study conclusion), waist measurements (baseline, Week 8 and Week 16), blood pressure (systolic and diastolic), and heart rate. The second general area of sampled quality of life indicators including activities of daily living, appetite, esteem, health, interpersonal relations, mobility, sex, and work using the IWQOL Scale; repeated measurements were taken at baseline, Week 8, and Week 16). The final set of secondary analyses sampled hunger and appetite using the Visual Analogue Scale for Hunger and Food Cravings. […]

[3] = Example 3 case: obese person, zonisamide then bupropion SR added; type: in vivo, human
Protocol: An obese person (weight 246 lb, BMI 41.4 kg/m^2) who had not benefited from various treatments, was started on zonisamide 100 mg/day and the dose was increased gradually to 400 mg a day over the next 4 weeks. […] At this point, zonisamide dose was increased to 600 mg a day; the patient achieved an additional weight loss of 0.6 lb in the next month. Thus, after 3 months of zonisamide therapy, the total weight loss with zonisamide therapy was 5.2 lb. […] They reported that they felt “full” after eating small portions of food, and had more energy.

[4] = Example 4 case: obese person, zonisamide then bupropion added; type: in vivo, human
Protocol: An obese person received zonisamide in a clinical trial and achieved weight loss of 35.6 lb over 32 weeks. During the 5 weeks following discontinuation of zonisamide, they gained 7.7 lb. Zonisamide was restarted, but this intervention was unsuccessful in offsetting the regained weight; after 16 weeks of therapy at doses up to 400 mg/d, the patient gained 1.2 lb.

[5] = optional 16-week single-blinded extension phase (to Week 32), zonisamide vs placebo in obese subjects; type: in vivo, human; conditions: Week 32, versus placebo; p<0.0030, p<0.0651, p<0.0019, P<0.0005
[6] = epileptic patients taking other concomitant AEDs; small percent of patients; cited from earlier work
[7] = Example 2 case: obese person, bupropion then zonisamide added; type: in vivo, human
Protocol: At this point, zonisamide was added to the regimen at 100 mg/day and the dose was increased after 2 weeks to 200 mg/day. […] No further information is available as the patient has relocated.

## NS(=O)(=O)Cc1noc2ccccc12 [zonisamide]
[1]; 16 weeks, overall sample decreased approximately 2 beats/min
  heart rate change versus placebo: no difference between the groups
[1]; ITT-LOCF, baseline 98.17 (2.5) kg, placebo 97.75 to 96.86 kg
  absolute weight at Week 16: 92.28 (2.47) kg
[1]; ITT-LOCF, placebo 0/30, p<0.0053
  subjects achieving >=10% weight loss at Week 16: 7/30
[1]; ITT-LOCF, placebo 3 of 30, p<0.0003
  subjects achieving >=5% weight loss at Week 16 (number): 17 of 30
[1]; ITT-LOCF, placebo 10%
  subjects achieving >=5% weight loss at Week 16 (percent): 57%
[1]; LOCF intent-to-treat imputation
  predicted weight loss per week (drug-by-time interaction regression coefficient): 0.29 kg/wk
[1]; Week 16, ITT analysis with LOCF, n=30, placebo 1.02% (0.40%), p<0.0001
  mean (SE) estimated weight loss: 5.98%
[1]; acute phase, baseline 0.79 (0.03) mg/dL, placebo 0.76 to 0.79
  serum creatinine after treatment: 0.92 (0.03) mg/dL
[1]; by four months
  systolic and diastolic blood pressure readings: did not change
[1]; completers, Week 16, placebo 1.30% (0.49%)
  weight loss, subjects completing the 16-week acute phase: 6.61%
[1]; likelihood imputed model, versus placebo
  predicted weight loss per week (drug-by-time interaction regression coefficient): > 0.3 kg
[1]; model based only on complete-data subjects
  predicted weight loss per week (drug-by-time interaction regression coefficient): 0.21 kg/wk
[1]; no further increase in the extension phase, no value exceeded upper limit of normal
  increase in serum creatinine: approximately 16%
[1]; of 30, placebo 1, p<0.006
  subjects reporting fatigue: 10 subjects
[1]; over the study period, placebo 1.6, p<0.125
  adverse effects (AEs) reported per subject, average: 2.1
[1]; whole study
  tolerability: generally well tolerated
[2]; DXA, baseline vs Week 32
  bone mineral density at lumbar vertebrae (L-BMD): did not change over time
[2]; DXA, baseline vs Week 32, both groups, no difference between groups, not clinically significant
  total bone mineral density: small, but statistically significant (p<0.017) increase
[2]; either treatment, significant reductions for some subjects
  mean lipid values: No clinically significant changes
[2]; extension phase subjects, baseline 0.78 (0.03) mg/dL, placebo 0.75 to 0.77
  serum creatinine after treatment: 0.92 (0.03) mg/dL
[2]; for the duration of treatment in this study (approximately 8 months)
  estimated rate of occurrence of kidney stones: 62.5 per 1000 patient-years of exposure
[2]; from 96.88 (3.01) kg, placebo 96.39 to 94.85 kg
  absolute weight at Week 32: 87.64 (2.95) kg
[2]; none of the placebo subjects, p<0.0004
  subjects who lost >=10% weight at Week 32: Ten of 19
[2]; over 32 weeks
  heart rate: no significant change
[2]
  mean weight loss at Week 32: 9.4%
[2]; listed as Zonisamide
  mean weight loss at Week 32: 9.37%
[3]; after 3 months of zonisamide therapy
  total weight loss: 5.2 lb
[3]; after one month, zonisamide up to 400 mg a day, start weight 246 lb
  weight lost: 4.6 lbs
[3]; in the next month, zonisamide 600 mg a day
  additional weight loss: 0.6 lb
[3]; zonisamide 400 mg a day
  weight change during the second month: no further weight loss
[4]; after 16 weeks of restarted zonisamide at doses up to 400 mg/d
  weight gained on restarted therapy: 1.2 lb
[4]; during the 5 weeks following discontinuation of zonisamide
  weight gained following discontinuation: 7.7 lb
[4]; over 32 weeks, zonisamide in a clinical trial
  weight loss: 35.6 lb
[5]
  Impact of Weight on Quality of Life (IWQOL): Health, Work, Mobility, Activities of Daily Living: improved more significantly
[6]
  weight loss observed as an adverse effect: a small degree of weight loss

## CC(NC(C)(C)C)C(=O)c1cccc(Cl)c1 (centres unmarked) [bupropion]
[7]; after 2 months on bupropion
  net weight loss: 1.6 lbs
[7]; after one month, bupropion 150 mg twice a day, start weight 271 lb
  weight lost: 5 lbs
[7]; during the second month on bupropion
  weight regained: 3.4 lbs
